Measured values as given in the supplement of paper PMC10307832.

Tests used:
Assay in all cases: relative viability (nuclei count vs DMSO), 5 days (fraction); higher = more cells survive
VE-821 + OSI-027 = compound: CS(=O)(=O)c1ccc(-c2cnc(N)c(C(=O)Nc3ccccc3)n2)cc1 [VE-821] + COc1cccc2cc(-c3nc([C@H]4CC[C@H](C(=O)O)CC4)n4ncnc(N)c34)[nH]c12 [OSI-027] (partner 0.5 µM)
How it was run: (§1)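 Lung cancer cell lines were pin-tool dosed in 1536-well plates on the day after seeding, with either a lone drug or a fixed anchor-drug dose plus five library-drug doses (not always all listed) in √10 steps. Nuclei were counted on 4× images after 5 days. Relative viability is the ratio of treated-well to vehicle-well nuclei counts, with each value a median of duplicate plates.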

VE-821 + Pemetrexed = compound: CS(=O)(=O)c1ccc(-c2cnc(N)c(C(=O)Nc3ccccc3)n2)cc1 [VE-821] + Nc1nc2[nH]cc(CCc3ccc(C(=O)N[C@@H](CCC(=O)O)C(=O)O)cc3)c2c(=O)[nH]1 [Pemetrexed] (partner 0.2 µM)
How it was run: as §1

VE-821 + Vorinostat = compound: CS(=O)(=O)c1ccc(-c2cnc(N)c(C(=O)Nc3ccccc3)n2)cc1 [VE-821] + O=C(CCCCCCC(=O)Nc1ccccc1)NO [Vorinostat] (partner 1 µM)
How it was run: as §1

Vismodegib + Pictilisib = compound: CS(=O)(=O)c1ccc(C(=O)Nc2ccc(Cl)c(-c3ccccn3)c2)c(Cl)c1 [Vismodegib] + CS(=O)(=O)N1CCN(Cc2cc3nc(-c4cccc5[nH]ncc45)nc(N4CCOCC4)c3s2)CC1 [Pictilisib] (partner 1 µM)
How it was run: as §1

Cell Line | relative viability (VE-821 + OSI-027; first compound 0.08 µM) | relative viability (VE-821 + OSI-027; first compound 0.253 µM) | relative viability (VE-821 + OSI-027; first compound 0.8 µM) | relative viability (VE-821 + OSI-027; first compound 2.53 µM) | relative viability (VE-821 + OSI-027; first compound 8 µM) | relative viability (VE-821 + Pemetrexed; first compound 0.08 µM) | relative viability (VE-821 + Pemetrexed; first compound 0.253 µM) | relative viability (VE-821 + Pemetrexed; first compound 0.8 µM) | relative viability (VE-821 + Pemetrexed; first compound 2.53 µM) | relative viability (VE-821 + Pemetrexed; first compound 8 µM) | relative viability (VE-821 + Vorinostat; first compound 0.08 µM) | relative viability (VE-821 + Vorinostat; first compound 0.253 µM) | relative viability (VE-821 + Vorinostat; first compound 0.8 µM) | relative viability (VE-821 + Vorinostat; first compound 2.53 µM) | relative viability (VE-821 + Vorinostat; first compound 8 µM) | relative viability (Vismodegib + Pictilisib; first compound 0.08 µM) | relative viability (Vismodegib + Pictilisib; first compound 0.253 µM) | relative viability (Vismodegib + Pictilisib; first compound 0.8 µM) | relative viability (Vismodegib + Pictilisib; first compound 2.53 µM) | relative viability (Vismodegib + Pictilisib; first compound 8 µM)
NCI-H2347 | 0.361 | 0.399 | 0.404 | 0.446 | 0.376 | 0.482 | 0.45 | 0.418 | 0.445 | 0.526 | 0.531 | 0.555 | 0.465 | 0.818 | 0.558 | 0.563 | 0.664 | 0.637 | 0.609 | 0.717
NCI-H2405 | 0.634 | 0.632 | 0.628 | 0.751 | 0.686 | 1.09 | 1.04 | 1.05 | 1.12 | 0.884 | 1.09 | 0.977 | 0.992 | 0.984 | 0.859 |  | 0.441 | 0.373 | 0.341 | 0.531
NCI-H3122 | 1.01 | 0.958 | 1 | 1.08 | 0.758 | 0.202 | 0.19 | 0.176 | 0.159 | 0.128 | 1.11 | 1.01 | 0.978 | 1.13 | 0.908 | 0.548 | 0.599 | 0.553 | 0.696 | 0.565
PC-3 [JPC-3] | 0.89 | 0.724 | 0.887 | 0.829 | 0.749 | 1.25 | 1.03 | 1.18 | 1.13 | 0.848 | 0.815 | 0.734 | 0.858 | 0.883 | 0.664 | 0.756 | 0.736 | 0.694 | 0.716 | 0.726
PC-14 | 1.01 | 0.762 | 0.913 | 0.824 | 0.336 | 0.126 | 0.124 | 0.0908 | 0.0863 | 0.0432 | 0.95 | 0.68 | 0.613 | 0.639 | 0.255 | 0.492 | 0.576 | 0.792 | 0.541 | 0.821
RERF-LC-KJ | 0.548 | 0.523 | 0.535 | 0.614 | 0.49 | 0.495 | 0.504 | 0.46 | 0.457 | 0.376 | 0.765 | 0.731 | 0.609 | 0.761 | 0.623 | 0.585 | 0.496 | 0.663 | 0.567 | 0.561
SK-LU-1 | 0.316 | 0.316 | 0.312 | 0.268 | 0.193 | 0.971 | 0.943 | 0.917 | 0.672 | 0.4 | 0.918 | 0.687 | 0.783 | 0.496 | 0.305 | 0.503 | 0.666 | 0.636 | 0.583 | 0.643
SK-MES-1 | 0.665 | 0.558 | 0.53 | 0.533 | 0.233 | 0.98 | 0.934 | 0.838 | 0.612 | 0.352 | 1.18 | 1.02 | 0.857 | 1.08 | 0.358 | 0.358 | 0.348 | 0.363 | 0.348 | 0.344
SW 1573 | 0.549 | 0.853 | 0.649 | 0.823 | 0.453 | 0.774 | 0.816 | 0.748 | 0.784 | 0.576 | 0.745 | 0.708 | 0.83 | 0.954 | 0.532 | 0.417 | 0.509 | 0.59 | 0.502 | 0.51
